Source: publication PMC9191647 (Neuropharmacology, 2019)
Several values for one entry are separate records, joined by “and”; a condition that tells them apart may be missing. Identical values can stand only once.

Legend:
human 5-HT1A receptor = target: T1, human 5-HT1A receptor (Homo sapiens, UniProt P08908); assay: Competitive radioligand binding
T1 sequence (P08908 1-422): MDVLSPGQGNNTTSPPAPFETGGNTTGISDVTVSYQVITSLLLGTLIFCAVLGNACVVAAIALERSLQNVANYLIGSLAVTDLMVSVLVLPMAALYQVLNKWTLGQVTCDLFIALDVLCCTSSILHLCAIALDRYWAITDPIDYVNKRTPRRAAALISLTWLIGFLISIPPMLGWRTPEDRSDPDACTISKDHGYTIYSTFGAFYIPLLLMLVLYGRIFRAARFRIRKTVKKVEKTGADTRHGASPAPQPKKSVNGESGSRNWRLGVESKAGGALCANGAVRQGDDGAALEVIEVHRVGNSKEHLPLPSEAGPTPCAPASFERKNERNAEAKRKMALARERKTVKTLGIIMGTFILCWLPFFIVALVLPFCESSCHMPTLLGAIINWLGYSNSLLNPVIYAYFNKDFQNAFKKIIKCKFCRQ

human 5-HT2A receptor = human 5-HT2A receptor (Homo sapiens, UniProt P28223); assay: Competitive radioligand binding
human 5-HT2C receptor = target: T2, human 5-HT2C receptor (Homo sapiens, UniProt P28335); assay: biochemical; assay type: binding
T2 sequence (P28335 33-458): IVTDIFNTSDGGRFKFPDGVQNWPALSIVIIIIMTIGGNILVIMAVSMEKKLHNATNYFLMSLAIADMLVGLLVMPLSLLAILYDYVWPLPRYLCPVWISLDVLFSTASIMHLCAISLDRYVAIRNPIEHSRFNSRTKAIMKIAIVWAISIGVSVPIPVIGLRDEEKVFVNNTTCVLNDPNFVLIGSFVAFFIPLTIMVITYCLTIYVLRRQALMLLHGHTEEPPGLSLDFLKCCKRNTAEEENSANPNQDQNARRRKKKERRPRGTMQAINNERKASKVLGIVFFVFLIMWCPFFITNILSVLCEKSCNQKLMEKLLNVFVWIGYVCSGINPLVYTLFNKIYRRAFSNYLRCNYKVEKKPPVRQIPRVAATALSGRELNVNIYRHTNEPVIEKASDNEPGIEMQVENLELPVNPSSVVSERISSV

5-HT1B = 5-HT1B (Homo sapiens, UniProt P28222); assay: Competitive radioligand binding
Chain of 5-HT1B (P28222 whole entry): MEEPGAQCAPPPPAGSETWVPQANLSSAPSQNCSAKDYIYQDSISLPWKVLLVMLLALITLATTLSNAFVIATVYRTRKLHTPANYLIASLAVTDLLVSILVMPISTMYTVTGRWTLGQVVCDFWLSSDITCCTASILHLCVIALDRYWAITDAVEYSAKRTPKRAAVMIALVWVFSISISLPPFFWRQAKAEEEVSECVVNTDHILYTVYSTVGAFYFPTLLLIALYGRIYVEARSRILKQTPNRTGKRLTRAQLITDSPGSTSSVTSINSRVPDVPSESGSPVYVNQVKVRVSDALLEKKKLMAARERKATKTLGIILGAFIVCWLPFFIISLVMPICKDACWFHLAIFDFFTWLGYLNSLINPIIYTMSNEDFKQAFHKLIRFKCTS

5-HT1D = 5-HT1D (Homo sapiens, UniProt P28221); assay: Competitive radioligand binding
Chain of 5-HT1D (P28221 whole entry): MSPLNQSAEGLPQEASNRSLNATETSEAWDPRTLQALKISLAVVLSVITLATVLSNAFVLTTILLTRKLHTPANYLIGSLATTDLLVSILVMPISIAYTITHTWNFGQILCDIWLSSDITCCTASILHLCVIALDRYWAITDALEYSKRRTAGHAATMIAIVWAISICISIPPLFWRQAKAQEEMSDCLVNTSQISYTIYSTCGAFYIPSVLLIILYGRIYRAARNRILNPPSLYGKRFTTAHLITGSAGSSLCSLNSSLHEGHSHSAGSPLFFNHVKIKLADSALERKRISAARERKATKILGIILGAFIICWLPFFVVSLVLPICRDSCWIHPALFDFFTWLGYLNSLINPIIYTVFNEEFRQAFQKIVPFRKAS

5-HT2B = 5-HT2B (Homo sapiens, UniProt P41595); assay: Competitive radioligand binding
5-HT5a = 5-HT5a (Homo sapiens, UniProt P47898); assay: Competitive radioligand binding
Chain of 5-HT5a (P47898 whole entry): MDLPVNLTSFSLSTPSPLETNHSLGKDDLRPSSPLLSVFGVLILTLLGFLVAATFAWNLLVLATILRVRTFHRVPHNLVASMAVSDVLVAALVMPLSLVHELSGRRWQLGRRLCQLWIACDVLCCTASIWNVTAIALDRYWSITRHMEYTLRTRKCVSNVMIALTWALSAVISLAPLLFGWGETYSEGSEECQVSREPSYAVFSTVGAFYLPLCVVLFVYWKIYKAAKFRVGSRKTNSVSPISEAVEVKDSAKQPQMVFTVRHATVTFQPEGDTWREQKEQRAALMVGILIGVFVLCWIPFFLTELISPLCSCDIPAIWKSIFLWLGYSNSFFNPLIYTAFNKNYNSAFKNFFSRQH

5-HT6 = 5-HT6 (Homo sapiens, UniProt P50406); assay: Competitive radioligand binding
5-HT7A = 5-HT7A (Homo sapiens, UniProt P34969); assay: Competitive radioligand binding
α1A = α1A (Homo sapiens, UniProt P35348); assay: Competitive radioligand binding
α1B = α1B (Homo sapiens, UniProt P35368); assay: Competitive radioligand binding
α1D = α1D (Homo sapiens, UniProt P25100); assay: Competitive radioligand binding
Chain of α1D (P25100 whole entry): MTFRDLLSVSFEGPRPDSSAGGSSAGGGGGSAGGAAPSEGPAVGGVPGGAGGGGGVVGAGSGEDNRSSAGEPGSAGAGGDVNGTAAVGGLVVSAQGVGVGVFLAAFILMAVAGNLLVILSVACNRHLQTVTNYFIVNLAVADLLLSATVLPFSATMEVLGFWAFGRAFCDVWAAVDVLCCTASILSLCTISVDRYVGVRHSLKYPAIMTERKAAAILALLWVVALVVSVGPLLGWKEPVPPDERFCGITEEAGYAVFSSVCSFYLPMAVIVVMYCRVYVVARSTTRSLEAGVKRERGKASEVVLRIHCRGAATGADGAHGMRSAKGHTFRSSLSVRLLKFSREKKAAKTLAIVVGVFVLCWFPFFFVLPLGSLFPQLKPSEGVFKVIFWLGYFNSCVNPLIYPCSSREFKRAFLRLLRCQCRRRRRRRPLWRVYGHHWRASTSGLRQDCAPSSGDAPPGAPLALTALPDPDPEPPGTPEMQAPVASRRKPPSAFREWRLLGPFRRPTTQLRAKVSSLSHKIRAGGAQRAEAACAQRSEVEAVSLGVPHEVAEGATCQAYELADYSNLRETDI

α2A = α2A (Homo sapiens, UniProt P08913); assay: Competitive radioligand binding
Chain of α2A (P08913 whole entry): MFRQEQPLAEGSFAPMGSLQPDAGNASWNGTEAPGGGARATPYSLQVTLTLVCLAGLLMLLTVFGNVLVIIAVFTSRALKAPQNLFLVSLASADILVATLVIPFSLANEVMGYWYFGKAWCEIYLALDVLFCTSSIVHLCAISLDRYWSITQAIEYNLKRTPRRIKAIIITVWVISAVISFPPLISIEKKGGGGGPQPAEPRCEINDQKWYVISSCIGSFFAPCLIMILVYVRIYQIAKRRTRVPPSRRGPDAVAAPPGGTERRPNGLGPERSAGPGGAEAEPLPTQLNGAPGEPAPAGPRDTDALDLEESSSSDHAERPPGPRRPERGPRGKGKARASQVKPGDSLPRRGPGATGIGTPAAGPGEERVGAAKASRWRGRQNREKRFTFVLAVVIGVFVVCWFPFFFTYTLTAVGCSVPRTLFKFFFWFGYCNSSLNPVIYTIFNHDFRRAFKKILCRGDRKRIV

α2B = α2B (Homo sapiens, UniProt P18089); assay: Competitive radioligand binding
Chain of α2B (P18089 whole entry): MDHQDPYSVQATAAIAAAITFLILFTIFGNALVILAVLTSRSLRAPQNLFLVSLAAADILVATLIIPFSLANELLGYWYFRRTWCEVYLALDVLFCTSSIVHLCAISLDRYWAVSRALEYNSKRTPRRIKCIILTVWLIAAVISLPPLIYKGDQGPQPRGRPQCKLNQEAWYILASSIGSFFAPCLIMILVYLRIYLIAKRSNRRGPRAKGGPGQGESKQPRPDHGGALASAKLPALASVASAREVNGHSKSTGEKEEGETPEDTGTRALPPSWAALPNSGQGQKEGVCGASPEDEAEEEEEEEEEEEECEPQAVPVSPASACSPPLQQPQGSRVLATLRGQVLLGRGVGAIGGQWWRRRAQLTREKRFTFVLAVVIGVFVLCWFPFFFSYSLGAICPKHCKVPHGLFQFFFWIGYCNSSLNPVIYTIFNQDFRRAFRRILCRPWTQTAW

α2C = α2C (Homo sapiens, UniProt P18825); assay: Competitive radioligand binding
β1 = β1 (Homo sapiens, UniProt P08588); assay: Competitive radioligand binding; parameters: species or system Human (heart)
β2 = β2 (Homo sapiens, UniProt P07550); assay: Competitive radioligand binding
β3 = β3 (Homo sapiens, UniProt P13945); assay: Competitive radioligand binding
D1 = D1 (Homo sapiens, UniProt P21728); assay: Competitive radioligand binding
Chain of D1 (P21728 whole entry): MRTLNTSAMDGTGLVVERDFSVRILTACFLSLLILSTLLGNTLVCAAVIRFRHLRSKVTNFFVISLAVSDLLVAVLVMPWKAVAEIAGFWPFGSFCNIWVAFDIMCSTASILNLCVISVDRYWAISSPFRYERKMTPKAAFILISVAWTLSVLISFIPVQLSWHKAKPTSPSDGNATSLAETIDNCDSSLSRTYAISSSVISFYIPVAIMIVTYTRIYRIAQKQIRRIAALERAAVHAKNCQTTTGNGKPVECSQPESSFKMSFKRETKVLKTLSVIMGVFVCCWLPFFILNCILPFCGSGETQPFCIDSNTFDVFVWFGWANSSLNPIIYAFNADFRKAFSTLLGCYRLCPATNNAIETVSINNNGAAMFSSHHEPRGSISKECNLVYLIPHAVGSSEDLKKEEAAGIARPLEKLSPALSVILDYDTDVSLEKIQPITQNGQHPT

D2 = D2 (Homo sapiens, UniProt P14416); assay: Competitive radioligand binding
D3 = D3 (Homo sapiens, UniProt P35462); assay: Competitive radioligand binding
D4 = D4 (Homo sapiens, UniProt P21917); assay: Competitive radioligand binding
D5 = D5 (Homo sapiens, UniProt P21918); assay: Competitive radioligand binding
H1 = H1 (Homo sapiens, UniProt P35367); assay: Competitive radioligand binding
H2 = H2 (Homo sapiens, UniProt P25021); assay: Competitive radioligand binding
Chain of H2 (P25021 whole entry): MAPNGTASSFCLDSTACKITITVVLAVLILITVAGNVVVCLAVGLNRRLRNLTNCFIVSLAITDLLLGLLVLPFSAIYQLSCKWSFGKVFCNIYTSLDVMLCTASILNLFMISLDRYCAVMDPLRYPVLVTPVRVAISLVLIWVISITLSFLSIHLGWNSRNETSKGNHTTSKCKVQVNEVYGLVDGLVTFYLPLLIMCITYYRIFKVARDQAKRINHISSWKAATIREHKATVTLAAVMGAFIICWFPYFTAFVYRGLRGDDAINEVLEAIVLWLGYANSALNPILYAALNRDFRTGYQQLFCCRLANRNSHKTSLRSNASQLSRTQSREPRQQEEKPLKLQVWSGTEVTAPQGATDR

H3 = H3 (Cavia porcellus, UniProt Q9JI35); assay: Competitive radioligand binding; parameters: species or system Guinea pig
Chain of H3 (Q9JI35 whole entry): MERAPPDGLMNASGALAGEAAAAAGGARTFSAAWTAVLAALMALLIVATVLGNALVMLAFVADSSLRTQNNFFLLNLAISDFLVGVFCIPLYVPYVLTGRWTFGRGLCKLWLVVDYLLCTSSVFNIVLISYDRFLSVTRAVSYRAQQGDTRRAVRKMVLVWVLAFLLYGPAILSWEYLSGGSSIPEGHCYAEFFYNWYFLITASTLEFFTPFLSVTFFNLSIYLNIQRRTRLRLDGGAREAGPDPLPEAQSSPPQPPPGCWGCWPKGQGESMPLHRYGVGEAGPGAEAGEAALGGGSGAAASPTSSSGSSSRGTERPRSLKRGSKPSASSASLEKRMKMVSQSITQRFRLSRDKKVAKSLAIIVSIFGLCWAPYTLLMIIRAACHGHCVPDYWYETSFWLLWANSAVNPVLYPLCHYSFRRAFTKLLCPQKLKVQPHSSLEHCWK

H4 = H4 (Homo sapiens, UniProt Q9H3N8); assay: Competitive radioligand binding
human 5-HT2A (h5-HT2A) = human 5-HT2A (h5-HT2A) (Homo sapiens, UniProt P28223); assay: Gq-mediated calcium flux in Flp-In T-REx 293 cells; assay type: cell-based
Chain of human 5-HT2A (h5-HT2A) (P28223 whole entry): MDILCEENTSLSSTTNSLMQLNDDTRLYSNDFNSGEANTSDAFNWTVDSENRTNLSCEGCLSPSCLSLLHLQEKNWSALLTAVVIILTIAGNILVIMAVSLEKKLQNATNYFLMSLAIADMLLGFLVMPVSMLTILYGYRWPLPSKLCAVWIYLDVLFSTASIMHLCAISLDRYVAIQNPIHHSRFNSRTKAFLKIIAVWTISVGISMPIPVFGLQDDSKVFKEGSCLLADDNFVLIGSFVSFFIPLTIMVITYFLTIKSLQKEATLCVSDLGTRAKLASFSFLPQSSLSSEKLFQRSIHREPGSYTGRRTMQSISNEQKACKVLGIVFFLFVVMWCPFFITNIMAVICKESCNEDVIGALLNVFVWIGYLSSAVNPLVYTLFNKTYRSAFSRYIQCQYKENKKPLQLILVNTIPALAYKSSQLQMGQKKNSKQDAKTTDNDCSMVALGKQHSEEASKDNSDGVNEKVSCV

mouse 5-HT2A (m5-HT2A) = mouse 5-HT2A (m5-HT2A) (Mus musculus, UniProt P35363); assay: Gq-mediated calcium flux in Flp-In T-REx 293 cells; assay type: cell-based
Chain of mouse 5-HT2A (m5-HT2A) (P35363 whole entry): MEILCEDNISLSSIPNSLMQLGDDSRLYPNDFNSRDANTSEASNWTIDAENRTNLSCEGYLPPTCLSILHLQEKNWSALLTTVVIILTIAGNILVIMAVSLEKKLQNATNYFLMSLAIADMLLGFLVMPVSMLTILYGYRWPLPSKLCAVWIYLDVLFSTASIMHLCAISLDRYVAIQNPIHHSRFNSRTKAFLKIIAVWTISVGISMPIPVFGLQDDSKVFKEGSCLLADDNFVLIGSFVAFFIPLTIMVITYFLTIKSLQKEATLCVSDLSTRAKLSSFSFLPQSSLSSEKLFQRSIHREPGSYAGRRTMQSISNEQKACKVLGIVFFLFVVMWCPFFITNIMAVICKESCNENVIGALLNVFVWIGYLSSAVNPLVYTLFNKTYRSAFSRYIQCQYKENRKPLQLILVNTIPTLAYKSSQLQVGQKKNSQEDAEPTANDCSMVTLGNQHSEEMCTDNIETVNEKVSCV

human 5-HT2B (h5-HT2B) = human 5-HT2B (h5-HT2B) (Homo sapiens, UniProt P41595); assay: Gq-mediated calcium flux in Flp-In T-REx 293 cells; assay type: cell-based; details: Ca^2+ flux
[1] = target: T3, human 5-HT2C INI (h5-HT2C) (Homo sapiens, UniProt P28335); assay type: cell-based
T3 sequence (P28335 33-458): T2 sequence (P28335 33-458)

male C57BL/6J mice [2] = assay: Head-twitch response; assay type: in vivo, mouse; details: HTR in mice
male C57BL/6J mice [3] = details: HTR, ref Brandt et al. (2019), cited from earlier work

**Q.** What does the source list for CCCC(=O)n1cc2c3c(cccc31)C1=C[C@@H](C(=O)N(CC)CC)CN(C)[C@@H]1C2 [1B-LSD, 1-butanoyl-D-lysergic acid diethylamide]?
**A.** Ki (human 5-HT1A receptor): 0.345 ± 0.118 µM; fold lower affinity than LSD for the 5-HT1A receptor (human 5-HT1A receptor; human 5-HT1A, relative to LSD): 36 fold; Ki (human 5-HT2A receptor): 0.0877 ± 0.0094 µM; Ki (human 5-HT2C receptor): 0.0208 µM; Ki (5-HT1B): 1.46 µM; Ki (5-HT1D): 0.295 ± 0.077 µM; Ki (5-HT2B): 0.0035 ± 0.0006 µM; Ki (5-HT5a): 0.158 ± 0.042 µM; Ki (5-HT6): 0.607 ± 0.112 µM; Ki (5-HT7A): 0.554 ± 0.158 µM; Ki (α1A): > 10 µM; Ki (α1B): > 10 µM; Ki (α1D): > 10 µM; Ki (α2A): 0.537 ± 0.085 µM; Ki (α2B): 2.66 µM; Ki (α2C): 0.812 ± 0.267 µM; Ki (β1): > 10 µM; Ki (β2): > 10 µM; Ki (β3): > 10 µM; Ki (D1): 1.17 µM; Ki (D2): > 10 µM; Ki (D3): 0.352 ± 0.064 µM; Ki (D4): 2.27 µM; Ki (D5): > 10 µM; Ki (H1): > 10 µM; Ki (H2): 0.842 ± 0.201 µM; Ki (H3): > 10 µM; Ki (H4): > 10 µM; EC50 (human 5-HT2A (h5-HT2A); EC50, nM, Ca^2+ flux): 85 nM; Emax % 5-HT (human 5-HT2A (h5-HT2A); percent 5-HT maximum response): 23 % 5-HT and 23 ± 2 % 5-HT; EC50 (mouse 5-HT2A (m5-HT2A); EC50, nM, Ca^2+ flux): 45 nM; Emax % 5-HT (mouse 5-HT2A (m5-HT2A); percent 5-HT maximum response): 35 ± 2 % 5-HT; agonist activity (human 5-HT2B (h5-HT2B)): no agonist activity; agonist activity [1]: no agonist activity; HTR potency as percent of the (molar) potency of LSD (male C57BL/6J mice [2]): ~ 14%; ED50 μg/kg (95% CI) (male C57BL/6J mice [3]; hemitartrate (2:1) salt): 457.6 (334.9–625.5) μg/kg; ED50 nmol/kg (95% CI) (male C57BL/6J mice [3]): 976.7 (714.8–1335) nmol/kg; Molar potency (relative to LSD) (male C57BL/6J mice [3]; listed as 1-Butanoyl-LSD): 0.14
